# Measured values taken from patent publication US9115092B2, “Substituted quinazoline and pyrido-pyrimidine derivatives” (Asana Biosciences, LLC, priority 2010, dated 2015).
# Key:
# [1] = biological target: T1, PI3Kα (wild-type), P110/P85α (Homo sapiens, UniProt P42336); experiment: PI3 Kinase TR-FRET assay, PI3Kα (wild-type); type: biochemical
# T1 construct: made in house; host or cells: SF9 insect cells
# Procedure, shortened: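 Sf9-expressed His-purified P110/P85α (5 ng) preincubated 60 min RT with compound and PIP2 in buffer with 40 mM MgCl2, 5 mM DTT; reaction started with ATP (PIP2 and ATP both 10 μM), 30 min RT. PIP3 detected by TR-FRET displacement, 665/615 nm ratio; IC50 from dose-response curves.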
# mTOR kinase = biological target: T2, mTOR kinase (Homo sapiens, UniProt P42345); experiment: mTOR kinase TR-FRET assay; type: biochemical; details: read-out: mTO R
# T2 construct: purchased Millipore, USA
# Procedure, shortened: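 Compounds preincubated 60 min with mTOR (5 ng) in HEPES pH 7.5, EGTA, MnCl2; ULight-p70 S6K Thr389 peptide (50 nM) and ATP (20 μM) then added, 60 min at room temperature. EDTA-stopped, Eu-anti-phospho antibody detection by TR-FRET (665/615 nm); IC50 from variable-slope sigmoidal fit.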
# PC3 cells = experiment: XTT assay for cell viability, PC3 cells; type: cell-based, human; details: Homo sapiens, PC-3, cell viability
# Experimental: Using a commercial kit from Sigma Aldrich (Catalog #X34251) and following its protocol, PC3 cells in the log phase of growth were employed and seeded at an optimal density of 1000 cell/well on to 96 well plates and incubated for 24 h followed by the addition of compounds of formula (I) in serial dilutions. Compound dilutions were made in DMSO. The cells were incubated with the compounds of formula (I) for 96 h and XTT tetrazolium dye (Sigma, USA) was subsequently added and incubated at 37° C. After the color formation, absorbance was measured at 465 nm in a Spectramax® Gemini spectrophotometer. EC50 values were calculated using a sigmoidal dose response curve fit in GraphPad Prism® v5 software. The tested compounds of formula (I) which caused inhibition of PC3 cell proliferation as determined by this assay protocol are shown in Table 2.
# T1 sequence (P42336 whole entry): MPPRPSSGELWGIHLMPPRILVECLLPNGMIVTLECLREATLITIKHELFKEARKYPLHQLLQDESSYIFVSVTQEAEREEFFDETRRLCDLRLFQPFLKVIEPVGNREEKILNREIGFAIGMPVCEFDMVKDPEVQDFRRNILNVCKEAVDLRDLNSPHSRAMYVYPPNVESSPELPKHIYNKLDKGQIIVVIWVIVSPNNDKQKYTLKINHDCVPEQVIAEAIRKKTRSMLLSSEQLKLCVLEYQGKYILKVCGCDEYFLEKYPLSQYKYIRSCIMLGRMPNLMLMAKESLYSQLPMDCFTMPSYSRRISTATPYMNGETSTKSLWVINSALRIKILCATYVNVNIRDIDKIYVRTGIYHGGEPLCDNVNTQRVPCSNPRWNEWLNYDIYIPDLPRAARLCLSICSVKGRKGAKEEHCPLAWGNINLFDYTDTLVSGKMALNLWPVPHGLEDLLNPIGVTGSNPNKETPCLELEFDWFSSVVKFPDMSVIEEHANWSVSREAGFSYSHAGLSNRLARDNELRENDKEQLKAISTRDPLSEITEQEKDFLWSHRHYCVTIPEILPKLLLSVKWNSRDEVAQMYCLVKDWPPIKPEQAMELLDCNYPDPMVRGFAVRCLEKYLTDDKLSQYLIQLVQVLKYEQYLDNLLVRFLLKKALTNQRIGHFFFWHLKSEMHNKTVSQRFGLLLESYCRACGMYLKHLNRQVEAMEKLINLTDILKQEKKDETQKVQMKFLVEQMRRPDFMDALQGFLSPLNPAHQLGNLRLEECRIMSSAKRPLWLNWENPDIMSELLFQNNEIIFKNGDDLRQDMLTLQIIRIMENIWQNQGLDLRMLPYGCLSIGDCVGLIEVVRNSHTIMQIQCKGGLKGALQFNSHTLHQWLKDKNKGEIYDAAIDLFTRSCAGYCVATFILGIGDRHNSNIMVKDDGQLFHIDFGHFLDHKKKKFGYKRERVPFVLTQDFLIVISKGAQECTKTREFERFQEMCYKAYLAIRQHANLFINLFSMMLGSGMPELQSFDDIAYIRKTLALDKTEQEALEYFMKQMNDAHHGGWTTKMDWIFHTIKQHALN
# T1 sequence (P27986 whole entry partner): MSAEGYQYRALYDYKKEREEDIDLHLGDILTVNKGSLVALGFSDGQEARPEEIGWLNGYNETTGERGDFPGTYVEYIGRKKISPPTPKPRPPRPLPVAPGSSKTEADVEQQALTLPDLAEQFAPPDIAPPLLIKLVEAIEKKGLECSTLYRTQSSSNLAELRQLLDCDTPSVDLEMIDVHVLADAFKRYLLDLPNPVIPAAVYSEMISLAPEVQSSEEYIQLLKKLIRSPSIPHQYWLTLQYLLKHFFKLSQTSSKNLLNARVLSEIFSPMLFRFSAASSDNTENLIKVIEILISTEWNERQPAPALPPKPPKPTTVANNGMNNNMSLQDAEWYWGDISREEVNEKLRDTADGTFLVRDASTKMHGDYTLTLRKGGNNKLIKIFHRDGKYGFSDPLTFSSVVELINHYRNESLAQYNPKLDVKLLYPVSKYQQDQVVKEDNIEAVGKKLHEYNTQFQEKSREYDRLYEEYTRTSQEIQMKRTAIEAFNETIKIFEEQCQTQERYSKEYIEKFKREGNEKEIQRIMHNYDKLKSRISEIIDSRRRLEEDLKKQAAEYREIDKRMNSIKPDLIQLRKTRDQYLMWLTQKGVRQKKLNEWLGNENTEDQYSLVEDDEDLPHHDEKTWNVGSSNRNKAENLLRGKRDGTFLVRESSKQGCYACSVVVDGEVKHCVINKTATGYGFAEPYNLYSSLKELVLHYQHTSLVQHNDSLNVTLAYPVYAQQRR
SMILES,IC50 [1],IC50 (mTOR kinase),IC50 (PC3 cells)
"CN1CCN(C(=O)c2ccc(NC(=O)Nc3ccc(-c4nc(N5CCOCC5)c5ccc(-c6cccc(S(C)(=O)=O)c6)cc5n4)cc3)cc2)CC1 [Example 32, 1-(4-(4-methylpiperazine-1-carbonyl)phenyl)-3-(4-(7-(3-(methylsulfonyl)phenyl)-4-morpholino-quinazolin-2-yl)phenyl)urea]",< 50 nM,< 50 nM,501 to 5000 nM
"CN(C)C(=O)c1ccc(NC(=O)Nc2ccc(-c3nc(N4CCOCC4)c4ccc(-c5cncc(S(C)(=O)=O)c5)cc4n3)cc2)cc1 [Example 34, 4-(3-{4-[7-(5-methanesulfonyl-pyridin-3-yl)-4-morpholin-4-yl-qinazolin-2-yl]-phenyl}-ureido)-N,N-dimethyl-benzamide]",< 50 nM,< 50 nM,< 100 nM
"CN(C)C(=O)c1ccc(NC(=O)Nc2ccc(-c3nc(N4CCOCC4)c4cc(F)c(-c5cccc(S(C)(=O)=O)c5)cc4n3)cc2)cc1 [Example 36, 4-(3-{4-[6-fluoro-7-(3-methanesulfonyl-phenyl)-4-morpholin-4-yl-quinazolin-2-yl]-phenyl}-ureido)-N,N-dimethyl-benzamide]",< 50 nM,< 50 nM,< 100 nM
"CN1CCN(C(=O)c2ccc(NC(=O)Nc3ccc(-c4nc(N5CCOCC5)c5ccc(-c6ccsc6)cc5n4)cc3)cc2)CC1 [Example 37, 1-[4-(4-methyl-piperazine-1-carbonyl)-phenyl]-3-[4-(4-morpholin-4-yl-7-thiophen-3-yl-quinazolin-2-yl)-phenyl]-urea]",50 to 200 nM,50 to 200 nM,100 to 500 nM
"CN(C)C(=O)c1ccc(NC(=O)Nc2ccc(-c3nc(N4CCOCC4)c4cc(F)c(-c5cncc(S(C)(=O)=O)c5)cc4n3)cc2)cc1 [Example 38, 4-(3-{4-[6-fluoro-7-(5-methanesulfonyl-pyridin-3-yl)-4-morpholin-4-yl-quinazolin-2-yl]-phenyl}-ureido)-N,N-dimethyl-benzamide]",< 50 nM,< 50 nM,< 100 nM
"CN(C)C(=O)c1ccc(NC(=O)Nc2ccc(-c3nc(N4CCOCC4)c4ncc(-c5cccc(S(C)(=O)=O)c5)cc4n3)cc2)cc1 [Example 39, 4-(3-{4-[7-(3-methanesulfonyl-phenyl)-4-morpholin-4-yl-pyrido[3,2-d]pyrimidin-2-yl]-phenyl}-ureido)-N,N-dimethyl-benzamide]",< 50 nM,< 50 nM,< 100 nM
"Cc1ccc(-c2cnc3c(N4CCOCC4)nc(-c4ccc(NC(=O)Nc5ccc(C(=O)N(C)C)cc5)cc4)nc3c2)o1 [Example 43, N,N-dimethyl-4-(3-{4-[7-(5-methyl-furan-2-yl)-4-morpholin-4-yl-pyrido[3,2-d]pyrimidin-2-yl]-phenyl}-ureido)-benzamide]",< 50 nM,< 50 nM,100 to 500 nM
"CN(C)C(=O)c1ccc(NC(=O)Nc2ccc(-c3nc(N4CCOCC4)c4ccc(-c5cccc(CO)c5)cc4n3)cc2)cc1 [Example 45, 4-(3-{4-[7-(3-hydroxymethyl-phenyl)-4-morpholin-4-yl-quinazolin-2-yl]-phenyl}-ureido)-N,N-dimethyl-benzamide]",< 50 nM,< 50 nM,< 100 nM
"CN(C)C(=O)c1ccc(NC(=O)Nc2ccc(-c3nc(N4CCOCC4)c4ccc(-c5ccsc5)cc4n3)cc2)cc1 [Example 52, N,N-dimethyl-4-{3-[4-(4-morpholin-4-yl-7-thiophen-3-yl-quinazolin-2-yl)-phenyl]-ureido}-benzamide]",< 50 nM,50 to 200 nM,100 to 500 nM
"CN(C)C(=O)c1ccc(NC(=O)Nc2ccc(-c3nc(N4CCOCC4)c4ccc(-c5ccoc5)cc4n3)cc2)cc1 [Example 53, 4-{3-[4-(7-furan-3-yl-4-morpholin-4-yl-quinazolin-2-yl)-phenyl]-ureido}-N,N-dimethyl-benzamide]",50 to 200 nM,50 to 200 nM,100 to 500 nM
"CN(C)C(=O)c1ccc(NC(=O)Nc2ccc(-c3nc(N4CCOCC4)c4ccc(-c5ccncc5)cc4n3)cc2)cc1 [Example 58, N,N-dimethyl-4-{3-[4-(4-morpholin-4-yl-7-pyridin-4-yl-quinazolin-2-yl)-phenyl]-ureido}-benzamide]",< 50 nM,< 50 nM,501 to 5000 nM
"CN(C)C(=O)c1ccc(NC(=O)Nc2ccc(-c3nc(N4CCOCC4)c4ccc(-c5cnc6ccccc6c5)cc4n3)cc2)cc1 [Example 59, N,N-dimethyl-4-{3-[4-(4-morpholin-4-yl-7-quinolin-3-yl-quinazolin-2-yl)-phenyl]-ureido}-benzamide]",< 50 nM,< 50 nM,< 100 nM
"COc1ccc(-c2ccc3c(N4CCOCC4)nc(-c4ccc(NC(=O)Nc5ccc(C(=O)N(C)C)cc5)cc4)nc3c2)cn1 [Example 60, 4-(3-{4-[7-(6-methoxy-pyridin-3-yl)-4-morpholin-4-yl-quinazolin-2-yl]-phenyl}-ureido)-N,N-dimethyl-benzamide]",< 50 nM,< 50 nM,100 to 500 nM
"CN1CCN(C(=O)c2ccc(NC(=O)Nc3ccc(-c4nc(N5CCOCC5)c5ncc(-c6cncnc6)cc5n4)cc3)cc2)CC1 [Example 67, 1-[4-(4-methyl-piperazine-1-carbonyl)-phenyl]-3-[4-(4-morpholin-4-yl-7-pyrimidin-5-yl-pyrido[3,2-d]pyrimidin-2-yl)-phenyl]-urea]",< 50 nM,< 50 nM,100 to 500 nM
"CN(C)C(=O)c1ccc(NC(=O)Nc2ccc(-c3nc(N4CCOCC4)c4ccc(-c5ccnc(F)c5)cc4n3)cc2)cc1 [Example 68, 4-(3-{4-[7-(2-fluoro-pyridin-4-yl)-4-morpholin-4-yl-quinazolin-2-yl]-phenyl}-ureido)-N,N-dimethyl-benzamide]",< 50 nM,< 50 nM,501 to 5000 nM
"Cc1ccc(-c2ccc3c(N4CCOCC4)nc(-c4ccc(NC(=O)Nc5ccc(C(=O)N6CCN(C)CC6)cc5)cc4)nc3c2)o1 [Example 70, 1-{4-[7-(5-methyl-furan-2-yl)-4-morpholin-4-yl-quinazolin-2-yl]-phenyl}-3-[4-(4-methyl-piperazine-1-carbonyl)-phenyl]-urea]",50 to 200 nM,50 to 200 nM,501 to 5000 nM
"CN1CCN(C(=O)c2ccc(NC(=O)Nc3ccc(-c4nc(N5CCOCC5)c5ncc(-c6cnn(C)c6)cc5n4)cc3)cc2)CC1 [Example 73, 1-[4-(4-methyl-piperazine-1-carbonyl)-phenyl]-3-{4-[7-(1-methyl-1H-pyrazol-4-yl)-4-morpholin-4-yl-pyrido[3,2-d]pyrimidin-2-yl]-phenyl}-urea]",< 50 nM,< 50 nM,501 to 5000 nM
"CN(C)C(=O)c1ccc(NC(=O)Nc2ccc(-c3nc(N4CCOCC4)c4ccc(-c5cccs5)cc4n3)cc2)cc1 [Example 74, N,N-dimethyl-4-{3-[4-(4-morpholin-4-yl-7-thiophen-2-yl-quinazolin-2-yl)-phenyl]-ureido}-benzamide]",< 50 nM,50 to 200 nM,501 to 5000 nM
"COc1ncc(-c2ccc3c(N4CCOCC4)nc(-c4ccc(NC(=O)Nc5ccc(C(=O)N(C)C)cc5)cc4)nc3c2)cn1 [Example 75, 4-(3-{4-[7-(2-methoxy-pyrimidin-5-yl)-4-morpholin-4-yl-quinazolin-2-yl]-phenyl}-ureido)-N,N-dimethyl-benzamide]",< 50 nM,< 50 nM,< 100 nM
"CN1CCN(C(=O)c2ccc(NC(=O)Nc3ccc(-c4nc(N5CCOCC5)c5ccc(-c6cncnc6)cc5n4)cc3)cc2)CC1 [Example 79, 1-[4-(4-methyl-piperazine-1-carbonyl)-phenyl]-3-[4-(4-morpholin-4-yl-7-pyrimidin-5-yl-quinazolin-2-yl)-phenyl]-urea]",201 to 10000 nM,< 50 nM,501 to 5000 nM
"Cc1ccncc1-c1cnc2c(N3CCOCC3)nc(-c3ccc(NC(=O)Nc4ccc(C(=O)N(C)C)cc4)c(F)c3)nc2c1 [Example 116, 4-(3-(2-fluoro-4-(7-(4-methylpyridin-3-yl)-4-morpholino-pyrido[3,2-d]pyrimidin-2-yl)phenyl)ureido)-N,N-dimethyl-benzamide]",50 to 200 nM,50 to 200 nM,501 to 5000 nM
"CN(C)C(=O)c1ccc(NC(=O)Nc2ccc(-c3nc(N4CCOCC4)c4ncc(-c5cnn(C)c5)cc4n3)cc2F)cn1 [Example 124, 5-(3-(2-fluoro-4-(7-(1-methyl-1H-pyrazol-4-yl)-4-morpholino-pyrido[3,2-d]pyrimidin-2-yl)phenyl)ureido)-N,N-dimethylpicolinamide]",< 50 nM,< 50 nM,201 to 10000 nM
"Cc1noc(C)c1-c1cnc2c(N3CCOCC3)nc(-c3ccc(NC(=O)Nc4ccc(C(=O)N(C)C)cc4)c(F)c3)nc2c1 [Example 135, 4-(3-(4-(7-(3,5-dimethylisoxazol-4-yl)-4-morpholino-pyrido[3,2-d]pyrimidin-2-yl)-2-fluorophenyl)ureido)-N,N-dimethyl-benzamide]",< 50 nM,< 50 nM,201 to 10000 nM
